Assay: solvent given as SMILES

CC(C)CCC(C)(C)C
Details | solvation free energy, 298 K [kcal/mol]
in O | 2.94

FC(F)(Cl)C(F)(Cl)Cl
Details | solvation free energy, 298 K [kcal/mol]
in C1CCOC1 | -3.37
in CC(C)=O | -3.31
in CCC(C)=O | -3.36
in CCOC(C)=O | -3.4
in COC(C)(C)C | -3.62
in COC(C)=O | -3.38
in Cc1cccc(C)c1 | -3.37
in ClC(Cl)(Cl)Cl | -3.27
in ClC(Cl)Cl | -3.46
in ClCCCl | -2.8
in O | 1.77

Nc1ncnc2c1ncn2C1CCC(CO)O1 (centres undefined)
Details | solvation free energy, 298 K [kcal/mol]
in C=CCCCCCCC=C | -14.8
in C=CCCCCCCCCCCCCCC | -14.7
in O | -20.5

COC(=O)c1ccccc1O
Details | solvation free energy, 298 K [kcal/mol]
in Cc1ccc(C)cc1 | -7.64

C=CC(=C)C
Details | solvation free energy, 298 K [kcal/mol]
in BrC(Br)C(Br)Br | -2.83
in Brc1cccc2ccccc12 | -2.82
in C1=Cc2ccccc2C1 | -3.1
in CC1COC(=O)O1 | -2.45
in CC(=O)N(C)C | -2.89
in CC(=O)OCc1ccccc1 | -2.93
in CC(=O)c1ccccc1 | -2.93
in CC(C)CC(C)(C)C | -3.16
in CCC(C)=O | -3.27
in CCCCC#N | -3.06
in CCCCCC#N | -3.11
in CCCCCCC | -3.22
in CCCCCCCC | -3.18
in CCCCCCCCO | -2.81
in CCCCO | -2.89
in CCNC(C)=O | -2.81
in CCOC(C)=O | -3.29
in CN1CCCC1=O | -2.89
in CN(C)C=O | -2.88
in CN(C)P(=O)(N(C)C)N(C)C | -2.89
in CNC(C)=O | -2.74
in CNC=O | -2.44
in CS(C)=O | -2.38
in Cc1cccc2ccccc12 | -2.94
in Cc1cccc(O)c1 | -2.72
in ClC(Cl)(Cl)Cl | -3.49
in ClC(Cl)C(Cl)Cl | -3.21
in ClCCCl | -3.3
in Clc1cccc2ccccc12 | -2.81
in N#CCCCC#N | -2.06
in N#CCCCCC#N | -2.35
in N#CCc1ccccc1 | -2.7
in N#Cc1ccccc1 | -3
in NCc1ccccc1 | -2.85
in Nc1ccccc1 | -2.56
in O | 0.68
in O=C1CCCCC1 | -3.22
in O=C(O)C(Cl)Cl | -2.77
in OCCO | -1.12
in OCc1ccccc1 | -2.56
in c1ccc2ncccc2c1 | -2.82

CCCCOC(=O)c1ccc(O)cc1
Details | solvation free energy, 298 K [kcal/mol]
in O | -8.72

Cc1ccccc1N
Details | solvation free energy, 298 K [kcal/mol]
in CC(C)CC(C)(C)C | -6.37
in CCCCCC | -6.13
in CCCCCCC | -6.22
in CCCCCCCC | -6.34
in CCCCCCCCCC | -6.64
in Cc1cccc(C)c1 | -7.32
in Cc1ccccc1C | -7.39
in O | -5.55

C=CC1(C)CCC(C(=C)C)CC1C(=C)C (centres undefined)
Details | solvation free energy, 298 K [kcal/mol]
in O | -0.42

C=CCC(C)C
Details | solvation free energy, 298 K [kcal/mol]
in C=CCCCCCCCCCCCCCC | -3.23
in O | 1.9

CCCc1ccccc1
Details | solvation free energy, 298 K [kcal/mol]
in C1CCOC1 | -6.63
in CC#N | -5.61
in CC(C)CC(C)(C)C | -5.89
in CC(C)O | -5.41
in CCCCCC | -5.55
in CCCCCCC | -5.92
in CCCCCCCCCC | -5.23
in CCCCCCCCCCCCCCCC | -5.76
in CCCCCCCCO | -5.58
in CO | -5.31
in NC=O | -3.49
in O | -0.56
in OCCO | -3.65
in OCCOCCO | -4.55
in OCCOCCOCCO | -4.69

Reference: the CombiSolv-Exp solvation set (Vermeire and Green 2021)
